{
  "source": "paper PMC7782499",
  "about": "“Progerinin, an optimized progerin-lamin A binding inhibitor, ameliorates premature senescence phenotypes of Hutchinson-Gilford progeria syndrome” (Communications Biology, 2021)",
  "key": {"[1]": {"test": "Pharmacokinetic analysis of SLC-D011 dissolved in monoolein-based solution, oral", "assay_type": "in vivo", "design": "unit not given here", "method": "Fig. S9. In vitro ADME results of SLC-D011 via oral administration. A. Formulation for complete dissolution. Due to its extremely hydrophobic property, SLC-D011 was not dissolved in water solution (left). To overcome this problem, several edible solutions were tested and monoolein- based solution was selected as a dissolving solution (right). B. SLC-D011 was very stable in solution. For complete dissolution, heating at 80℃ and sonication step were required. However, SLC -D011 was not broken despite of heating […]\nand sonication. […] C and D.\nPharmacokinetic analysis of SLC -D011dissolved in monoolein- based solution."}, "[2]": {"test": "Liver microsomal stability, mouse", "assay_type": "in vitro ADME", "details": "liver microsomes, read-out: Liver microsomal stability (% remaining during 30min)", "method": "For PK analysis, 5 mg/kg of JH4 in 10% DMSO, 5% […] solution were intravenously injected and 10 mg/kg of JH4 in 10% NMP and 90% PEG400 solution were orally delivered. At pre-set time-points, blood concentration of JH4 was determined by LC-MS/MS analysis[22],[23]. Other chemicals were also tested using similar protocol. In vitro ADME studies (plasma protein binding, CYP inhibition, microsomal stability, plasma stability, and hERG inhibition) were performed by New Drug Development Center (Daegu, Korea) using standard protocols[24],[25]."}, "[3]": {"system": "Lmna G609G/G609G mouse", "test": "Life span of Lmna G609G/G609G progeria model mice", "assay_type": "in vivo", "details": "i.p. 20 mg/kg twice a week from 5 weeks old", "text": "Fig. 3 In vivo favorable effect of SLC-D011. A Gross morphology of Lmna^G609G/G609G mice (10 weeks old) was ameliorated after injection with SLC-D011. At the same age, the experimental group (D011) of mice were larger than vehicle-injected control (Con) subjects regardless of gender. B, C SLC-D011 increases body weight B and extends life span C of Lmna^G609G/G609G progeria model mouse (Con: n = 8; SLC-D011: n = 8). Compared with 14.8 weeks of average (ave) life span with maximum (max) life span of 15.5 weeks, 20 mg/kg of intraperitoneal (i.p) injection (twice a week) of SLC-D011 could extend the life span upto 19 weeks (max = 21 weeks). Lmna^G609G/G609G mice were injected with SLC-D011 from age of 5-week old, *p < 0.05. D Gross morphology of SLC-D011 injected Lmna^G609G/+ mouse. […] E SLC-D011 increases body weights of Lmna^G609G/+ mice (Con: n = 10; SLC-D011: n = 11), *p < 0.05. F Favorable effect of SLC-D011 on life span of Lmna^G609G/+ mice. […] Only the axis reads Age (weeks).\nFig. 4 Oral administration of SLC-D011 suppresses premature aging features. […] H Anti-aging effects of single treatment of SLC-D011 or lonafarnib were measured in HGPS patients-derived cells (AG11513, AG03199, AG11498, and AG03198, Coriell Cell Repositories). […]"}},
  "data": [
    {"smiles": "CC1(C)Oc2cc3oc(=O)ccc3cc2C[C@@H]1OC/C=C/c1ccccc1", "note": "[SLC-D011]", "values": [
      {"measurement": "Plasma concentration, Mean", "setting": "[1]; oral 10mg/kg (n=3), 0.25 hr", "value": 41},
      {"measurement": "Plasma concentration, Mean", "setting": "[1]; oral 10mg/kg (n=3), 0.5 hr", "value": 71},
      {"measurement": "Plasma concentration, Mean", "setting": "[1]; oral 10mg/kg (n=3), 1 hr", "value": 124.8},
      {"measurement": "Plasma concentration, Mean", "setting": "[1]; oral 10mg/kg (n=3), 2 hr", "value": 441.9},
      {"measurement": "Plasma concentration, Mean", "setting": "[1]; oral 10mg/kg (n=3), 4 hr", "value": 318.8},
      {"measurement": "Plasma concentration, Mean", "setting": "[1]; oral 10mg/kg (n=3), 8 hr", "value": 160.1},
      {"measurement": "Plasma concentration, Mean", "setting": "[1]; oral 10mg/kg (n=3), 24 hr", "value": 7.7},
      {"measurement": "Plasma concentration, Mean", "setting": "[1]; oral 20mg/kg (n=3), 0.25 hr", "value": 67.3},
      {"measurement": "Plasma concentration, Mean", "setting": "[1]; oral 20mg/kg (n=3), 0.5 hr", "value": 93.1},
      {"measurement": "Plasma concentration, Mean", "setting": "[1]; oral 20mg/kg (n=3), 1 hr", "value": 537.5},
      {"measurement": "Plasma concentration, Mean", "setting": "[1]; oral 20mg/kg (n=3), 2 hr", "value": 581.7},
      {"measurement": "Plasma concentration, Mean", "setting": "[1]; oral 20mg/kg (n=3), 4 hr", "value": 899.9},
      {"measurement": "Plasma concentration, Mean", "setting": "[1]; oral 20mg/kg (n=3), 8 hr", "value": 574},
      {"measurement": "Plasma concentration, Mean", "setting": "[1]; oral 20mg/kg (n=3), 24 hr", "value": 9.7},
      {"measurement": "remaining at 0.5 h", "setting": "[2]", "value": 59.7, "unit": "%"},
      {"measurement": "Maximum life span", "setting": "[3]", "value": 21, "unit": "weeks"}
    ]}
  ]
}
